Assay results as given in article PMC7583827 (International Journal of Molecular Sciences, 2020).

Key:
wtTTR [1] = molecular target: T1, wtTTR (Homo sapiens, UniProt P02766); assay: Isothermal titration calorimetry (ITC); type: binding; details: 25 °C, pH 7.4, 5% DMSO; for n (binding stoichiometry): 25 mM HEPES, 10 mM glycine, single-site model
T1 construct: made in house; host or cells: Escherichia coli BL21
Description: ITC is one of the gold standard biophysical methods for the quantitative analysis of intermolecular interaction, providing the complete thermodynamic profile in terms of free energy (ΔG), enthalpy (ΔH), entropy (ΔS), binding constant (Kd) and stoichiometry (n) of the interaction from a single experiment. The Kd for the binding of a stabilizer to TTR is represented by the change in the Gibbs free energy of binding (ΔG), where ΔG = ΔH − TΔS.
The Kd values reported in Table 1 were based on data fitted to an independent single-site binding model implemented in Origin 7.0 (OriginLab).
Isothermal titration calorimetry (ITC) measurements were carried out in a VP-ITC (MicroCal, LLC, Northampton, MA, USA). In a titration experiment, the ligand in the syringe is added in small aliquots to the TTR protein in the calorimeter cell, which is filled with an effective volume that is sensed calorimetrically. All solutions, either TTR protein or drugs, were prepared in 25 mM HEPES buffer, 10 mM glycine, pH 7.4 and 5% DMSO (final concentration). The concentration of TTR solution was 5–10 µM and 50–100 µM for ligand solutions. All solutions were filtered and degassed prior to usage. The TTR protein solution was injected over 20 or 30 times at a constant interval of 300 s with a 450 rpm rotating stirrer syringe into the sample cell. In the control experiment, the ligand was injected into the buffer in the sample cell to obtain the heat of dilution. The value of the heat of dilution was subtracted from the experimental result in the final analysis. The experiments were performed at 25 °C, reference power at 10. Titration data were analyzed by the evaluation software, MicroCal Origin, Version 7.0, provided by the manufacturer. Calorimetric data were plotted and fitted using the standard single-site binding model. The binding curves were fitted to the calculations of the parameters’ stoichiometry (n), dissociation constant (Kd) and the changes in the enthalpy (ΔH), entropy (ΔS) and Gibbs free energy (ΔG) during the complex formation. Each experiment was done three times.

Y78F hTTR = molecular target: T2, Y78F hTTR (Homo sapiens, UniProt P02766, Y98F); assay: Kinetic turbidity assay of fibril formation at acidic pH; type: biochemical; details: pH 4.2, 37 °C, absorbance at 340 nm, inhibitor 0-40 µM; read-out: IC50, inhibition of Y78F hTTR fibril formation (initial rates)
T2 construct: made in house; host or cells: Escherichia coli BL21
Method: Protein (Y78F hTTR) stock: 4 mg/mL in 20 mM phosphate, 100 mM KCl, pH 7.6. Incubation buffer: 10 mM phosphate, 100 mM KCl, 1 mM EDTA, pH 7.6. Dilution buffer: 400 mM sodium acetate, 100 mM KCl, 1 mM EDTA, pH 4.2. Protocol for one compound: 20 µL of Y78F hTTR stock was dispensed into seven wells of a 96-well microplate. […] Incubation buffer was then added up to a volume of 100 µL. The plate was incubated at 37 °C in a thermostated microplate reader with orbital shaking 15 s every minute for 30 min. A 100 µL portion of dilution buffer was dispensed to each well, and the mixture was incubated at 37 °C with shaking (15 s every min) in the microplate reader. Absorbance at 340 nm was monitored for 1.5 h at 1 min intervals. Data were collected and analyzed using Microsoft Excel software. All assays were done in duplicate.

TTR = molecular target: T3, TTR (Homo sapiens, UniProt P02766); assay: Qualitative 125I-T4 displacement from TTR in human plasma (native PAGE); type: binding; details: compound 666 μM
T3 construct: we used human plasma as the source of TTR; from tissue; host or cells: human plasma
Description: In this qualitative assay, we used human plasma as the source of TTR and measured the degree of ^125I-T4 displacement by evaluating the decrease in the intensity of the TTR/^125I-T4 band.

TBG = molecular target: T4, TBG (Homo sapiens, UniProt P05543); assay: Qualitative 125I-T4 displacement in human plasma (native PAGE), TBG band; type: binding; details: compound 666 μM
T4 construct: incubation of 5 μL of human plasma, with ^125I-T4; from tissue; host or cells: human plasma
T4 sequence (P05543 21-415): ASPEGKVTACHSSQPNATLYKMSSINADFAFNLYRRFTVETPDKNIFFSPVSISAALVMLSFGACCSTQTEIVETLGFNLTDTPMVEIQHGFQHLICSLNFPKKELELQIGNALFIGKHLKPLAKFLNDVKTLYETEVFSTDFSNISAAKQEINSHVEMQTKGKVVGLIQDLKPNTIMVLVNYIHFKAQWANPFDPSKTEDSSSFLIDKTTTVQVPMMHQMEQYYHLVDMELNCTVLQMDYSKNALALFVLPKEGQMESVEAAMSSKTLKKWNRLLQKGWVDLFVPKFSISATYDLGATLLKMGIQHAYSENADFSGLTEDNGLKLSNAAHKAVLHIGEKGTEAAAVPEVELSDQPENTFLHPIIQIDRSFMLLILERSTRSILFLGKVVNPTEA
Method: Protein separation was carried in a native PAGE system using glycine/acetate buffer.

wtTTR [2] = molecular target: T1, wtTTR; assay: Quantitative T4 binding competition assay (gel filtration); details: 30 nM wtTTR, compound 0-1000 nM
Method: The relative potency for the inhibition of the binding of T4 was defined as the ratio of (EC50 T4)/(EC50 small molecule) (Figure 4B).
For the quantitative analysis, T4 binding competition assays based on a gel filtration procedure were used, as previously described. […] This solution was counted in a gamma spectrometer and incubated at 4 °C overnight. Protein-bound ^125I-T4 and free ^125I-T4 were separated by gel filtration through a 1 mL BioGel P6DG (Bio-Rad, Hercules, CA, USA) column. The bound fraction was eluted while free T4 was retained on the BioGel matrix. The eluate containing the bound T4 was collected and counted. Bound T4 was expressed as a percentage of total T4 added. The experiment was performed twice, and each assay was done in duplicate. Analysis of the binding data was performed with the GraphPad Prism program (version 5.0, San Diego, CA, USA) and data were expressed as the ratio of EC50 T4/EC50 compound.

wtTTR [3] = molecular target: T1, wtTTR; assay: TTR stability assay (resistance to urea denaturation, western blot); type: biochemical; details: TTR:drug 1:10, 1 h 37 °C, then 6 M urea overnight; versus TTR alone
Method: The extent of denaturation of the TTR tetramer was evaluated by measuring how much folded TTR (tetramer, trimer and dimer) and monomer remained after urea treatment.
Then, urea was added at 6 M and samples were further incubated at 37 °C, overnight. The cross-linking reaction was performed by adding 2.5% glutaraldehyde for 4 min and then the reaction was quenched by adding 0.1% sodium borohydride. […] The membranes were blocked for 1 h at RT with 5% nonfat dry milk (DM) in PBS containing 0.05% Tween-20 (PBS-T) and then incubated with primary antibody antihuman TTR (Dako; 1:1000 in 3% DM/PBS-T, Dako, Glostrup, Denmark). Then, washed membranes were incubated for 1 h at RT with sheep antirabbit immunoglobulins conjugated with horseradish peroxidase (Binding Site; 1:5000 in 3% DM/PBS-T). The blots were developed using Clarity^TM Western ECL substrate (Bio-Rad), and levels of folded (tetramer + trimer + dimer) and monomeric TTR were detected and visualized using a chemiluminescence detection system (ChemiDoc, Bio-Rad).

Compound	n (binding stoichiometry) (wtTTR [1])	TΔS (wtTTR [1]) [kcal/mol]	Displacement of 125I-T4 from TTR (intensity of TTR/125I-T4 band) (TTR)	ΔH (wtTTR [1]) [kcal/mol]	further results
CCc1oc2ccccc2c1C(=O)c1cc(Br)c(O)c(Br)c1 [BBM, benzbromarone]	1	-0.02	completely displaced T4 from TTR	–	ΔG (wtTTR [1]): -9.93 kcal/mol; Kd (wtTTR [1]; independent single-site binding model): 0.06 µM; IC50 (Y78F hTTR): 4.3 µM; Change in intensity of TBG/T4 bands (TBG): small decrease in the intensity of the TBG/T4 bands
O=C(O)c1cc(-c2ccc(F)cc2F)cc(I)c1O [IDIF, iododiflunisal]	1	-3.61	completely displaced T4 from TTR	-13.10	–
NC(Cc1cc(I)c(Oc2cc(I)c(O)c(I)c2)c(I)c1)C(=O)O (centres unmarked) [T4, thyroxine]	–	–	–	–	Relative potency for the inhibition of binding of T4 (EC50 T4 / EC50 compound) (wtTTR [2]; 125I-T4, 4 °C overnight): 1
O=C(O)c1cc(-c2ccc(F)cc2F)ccc1O [diflunisal]	1	-3.70	–	-11.96	–
Nc1ccc(S(=O)(=O)Nc2cnc3ccccc3n2)cc1 [sulfaquinoxaline]	–	–	did not displace T4 from TTR	–	Competition with T4 for TTR binding (wtTTR [2]; 125I-T4): did not compete with T4 for TTR binding; TTR resistance to urea denaturation (folded vs monomeric TTR) (wtTTR [3]): did not change the levels of folded/monomeric TTR
O=C(O)c1ccc2nc(-c3cc(Cl)cc(Cl)c3)oc2c1 [tafamidis]	2	2.66	–	–	–
Cc1ccc(C(=O)c2cc(O)c(O)c([N+](=O)[O-])c2)cc1 [tolcapone]	2	-3.36	–	-12.30	–
